Literature values in publication PMC4871512, “Drug-Based Lead Discovery: The Novel Ablative Antiretroviral Profile of Deferiprone in HIV-1-Infected Cells and in HIV-Infected Treatment-Naive Subjects of a Double-Blind, Placebo-Controlled, Randomized Exploratory Trial” (PLoS ONE, 2016).

Legend:
[1] = test system: HIV-infected cell lines and HIV-infected primary cells; conditions: cited from earlier work
human or mouse epithelia = test system: human or mouse epithelia; set-up: method as in PMID 24086341; conditions: concentrations that ablate yeast and HIV-infected cells; cited from earlier work
HIV-1 [2] = test system: HIV-1; set-up: method as in PMID 9715844; conditions: cited from earlier work
DOHH = test system: DOHH; set-up: method as in PMID 12115536; conditions: clinically relevant concentrations; cited from earlier work
[3] = test system: productively infected macrophages; set-up: method as in PMID 7973634; conditions: cited from earlier work
HIV-1 [4] = test system: HIV-1; set-up: method as in PMID 8793010; conditions: culture; cited from earlier work
HIV-1 [5] = test system: HIV-1; set-up: method as in PMID 8648207, PMID 9498441, PMID 9952363; conditions: after 12 weeks on monotherapy; cited from earlier work
[6] = clinically relevant concentrations

For `Cc1cc(C2CCCCC2)n(O)c(=O)c1` [ciclopirox, 6-cyclohexyl-1-hydroxy-4-methylpyridin-2[1H]-one], the “off-drug re-emergence of HIV-1 RNA synthesis, compared with deferiprone” value ([1]; ciclopirox at 30 μM) is given as “gave similar results”, the “antiretroviral activity of the paired 1,2-HOPO chelators” value [1] is given as “antiretrovirally active” and the “viral breakthrough during monotherapy” value ([1]; up to 5 weeks of monotherapy) is given as “neither allowed breakthrough”. The “acute toxicity at human or mouse epithelia” value (human or mouse epithelia) was “does not cause acute toxicity”.

In the case of `CC(=O)N(O)CCCCCNC(=O)CCC(=O)N(O)CCCCCNC(=O)CCC(=O)N(O)CCCCCN` [deferoxamine], the “dose-related antiretroviral effect in persons living with HIV-1” value (HIV-1 [2]) is listed as “does not display a dose-related antiretroviral effect”, the “ablation of HIV-infected cells” value [1, 6] is listed as “does not ablate HIV-infected cells” and the “antiretroviral activity in culture” value [1, 6] is listed as “does not display antiretroviral activity in culture”. For the same molecule, the “suppression of DOHH activity” value (DOHH) was “does not achieve maximal suppression of DOHH activity”.

For `NC(=O)NO` [hydroxyurea], the “HIV-1 DNA” value [3] is listed as “depleted HIV-1 DNA”, the viral breakthrough [3] is listed as “blocked breakthrough during three weeks of treatment” and the “viral rebound after cessation” value [3] is listed as “did not allow rebound after cessation”.

In the case of `NC(Cn1ccc(=O)c(O)c1)C(=O)O` (stereo not drawn) [mimosine], the “ribosomal presence of gag mRNA, amount of intra- and extracellular p24, budding of viral particles” value ([1]; treated HIV-infected cells) is given as “suppress”.

For `Cc1ccnc2c1NC(=O)c1cccnc1N2C1CC1` [nevirapine], the “time to viral breakthrough during monotherapy” value (HIV-1 [4]) is listed as no less than 4 days.

For `Cc1cn([C@H]2C[C@H](N=[N+]=[N-])[C@@H](CO)O2)c(=O)[nH]c1=O` [zidovudine], the “time to viral breakthrough during monotherapy” value (HIV-1 [4]) is given as no less than 4 days and the viral load decline (HIV-1 [5]) is given as -0.3 log10.
